Test: Henry solubility constant Hcp at 298.15 K (mol/(m3 Pa))
[1] = reference: Schuhfried et al. (2015)
[2] = reference: Shunthirasingham et al. (2013)

In the case of `CC(F)(Cl)Cl` [1,1-dichloro-1-fluoroethane], the “Henry solubility constant Hcp” value (reference: Kutsuna (2013)) is reported as 0.00029 and the “Henry solubility constant Hcp” value (reference: Maaßen (1995)) is reported as 0.00028.

For `C=CC(=C)C` [2-methyl-1,3-butadiene], the “Henry solubility constant Hcp” value (reference: Leng et al. (2013)) was 0.00034 and the “Henry solubility constant Hcp” value [1] was 0.0003.

For `CCc1cccc2ccccc12` [1-ethylnaphthalene], the “Henry solubility constant Hcp” value (reference: Schwarz and Wasik (1977)) was 0.022.

For `CCCCS` [1-butanethiol], the “Henry solubility constant Hcp” value (reference: Coquelet and Richon (2005)) was 0.0015 and the “Henry solubility constant Hcp” value (reference: Haimi et al. (2006)) was 0.0015.

In the case of `CCCCCO` [1-pentanol], the “Henry solubility constant Hcp” value (reference: Butler et al. (1935)) is reported as 0.78, the “Henry solubility constant Hcp” value (reference: Gupta et al. (2000)) is reported as 0.95 and the “Henry solubility constant Hcp” value (reference: Lei et al. (2007)) is reported as 0.75. The “Henry solubility constant Hcp” value [2] was 0.81.

With `CCCCCCCCO` [1-octanol] the “Henry solubility constant Hcp” value (reference: Lei et al. (2007)) was 0.19, the “Henry solubility constant Hcp” value [2] was 0.21 and the “Henry solubility constant Hcp” value (reference: Wu et al. (2022a)) was 0.17.

For `COP(=S)(OC)Oc1ccc([N+](=O)[O-])c(C)c1` [fenitrothion], the “Henry solubility constant Hcp” value (reference: Metcalfe et al. (1980)) was 11.

With `Clc1cc(Cl)c(Cl)cc1Cl` [1,2,4,5-tetrachlorobenzene] the “Henry solubility constant Hcp” value (reference: McPhedran et al. (2013)) was 0.018.

With `OCCC(F)(F)C(F)(F)C(F)(F)C(F)(F)C(F)(F)C(F)(F)C(F)(F)C(F)(F)C(F)(F)C(F)(F)F` [1,1,2,2-tetrahydroperfluoro dodecanol] the “Henry solubility constant Hcp” value (reference: Wu and Chang (2011)) was 0.00013.

With `Brc1ccc(Oc2cc(Br)c(Br)c(Br)c2Br)cc1` [2,3,4,4',5-pentabromodiphenyl ether] the “Henry solubility constant Hcp” value (reference: Charles and Destaillats (2005)) was 0.88.

With `COc1cc(CO)ccc1O` [vanillyl alcohol] the “Henry solubility constant Hcp” value (reference: McFall et al. (2020)) was 96000.

With `CCCCOC(C)=O` [butyl ethanoate] the “Henry solubility constant Hcp” value (reference: Fenclová et al. (2014)) was 0.035, the “Henry solubility constant Hcp” value (reference: Ioffe et al. (1984)) was 0.035 and the “Henry solubility constant Hcp” value (reference: Kieckbusch and King (1979b)) was 0.035.

For `[Ar]` [argon], the “Henry solubility constant Hcp” value (reference: Ashton et al. (1968)) was 1.4e-05, the “Henry solubility constant Hcp” value (reference: Cosgrove and Walkley (1981)) was 1.4e-05 and the “Henry solubility constant Hcp” value (reference: Crovetto et al. (1982)) was 1.4e-05. For the same compound, the “Henry solubility constant Hcp” value (reference: Friedman (1954)) was 1.4e-05, the “Henry solubility constant Hcp” value (reference: Krause and Benson (1989)) was 1.4e-05 and the “Henry solubility constant Hcp” value (reference: Lannung (1930)) was 1.4e-05. For the same compound, the “Henry solubility constant Hcp” value (reference: Morrison and Johnstone (1954)) was 1.3e-05, the “Henry solubility constant Hcp” value (reference: Murray and Riley (1970)) was 1.4e-05 and the “Henry solubility constant Hcp” value (reference: Park et al. (1982)) was 1.4e-05. For the same compound, the “Henry solubility constant Hcp” value (reference: Potter II and Clynne (1978)) was 1.4e-05, the “Henry solubility constant Hcp” value (reference: Rettich et al. (1992)) was 1.4e-05 and the “Henry solubility constant Hcp” value (reference: Shoor et al. (1969)) was 1.4e-05. The “Henry solubility constant Hcp” value (reference: Winkler (1906)) was 1.5e-05 and the “Henry solubility constant Hcp” value (reference: von Antropoff (1910)) was 1.6e-05.

With `CCCCCCCO` [1-heptanol] the “Henry solubility constant Hcp” value (reference: Lei et al. (2007)) was 0.36 and the “Henry solubility constant Hcp” value [2] was 0.38.

In the case of `FC(F)(F)C(F)(F)C(F)(F)F` [octafluoropropane], the “Henry solubility constant Hcp” value (reference: Wen and Muccitelli (1979)) is reported as 1.2e-07.

In the case of `CS(C)=O` [dimethylsulfoxide], the “Henry solubility constant Hcp” value (reference: Lee and Zhou (1994)) is reported as greater than 9900 and the “Henry solubility constant Hcp” value (reference: Watts and Brimblecombe (1987)) is reported as 940.

With `CCCCCCCCC=O` [nonanal] the “Henry solubility constant Hcp” value (reference: Buttery et al. (1965)) was 0.071.

In the case of `OCC(F)(F)C(F)(F)F` [2,2,3,3,3-pentafluoro-1-propanol], the “Henry solubility constant Hcp” value (reference: Chen et al. (2003)) is reported as 0.14 and the “Henry solubility constant Hcp” value (reference: Rochester and Symonds (1973)) is reported as 0.45.

With `[2H]c1c([2H])c([2H])c([2H])c([2H])c1[2H]` [benzene-d6] the “Henry solubility constant Hcp” value (reference: Wasik and Tsang (1970)) was 0.0016.

In the case of `C=C(C)C(=O)O` [2-methyl-2-propenoic acid], the “Henry solubility constant Hcp” value (reference: Khan et al. (1992)) is reported as 25.

In the case of `CC/C=C\CCC=O` [(Z)-4-heptenal], the “Henry solubility constant Hcp” value (reference: Straver and de Loos (2005)) is reported as 0.088.

In the case of `Fc1ccccc1` [fluorobenzene], the “Henry solubility constant Hcp” value (reference: Hartkopf and Karger (1973)) is reported as 0.0015.

In the case of `CCOC(C)(C)CC` [2-ethoxy-2-methylbutane], the “Henry solubility constant Hcp” value (reference: Haimi et al. (2006)) is reported as 0.0048.

For `C=COC(C)=O` [ethenyl ethanoate], the “Henry solubility constant Hcp” value (reference: Böhme et al. (2008)) was 0.02.

With `CC(C)CCO[N+](=O)[O-]` [3-methyl-1-butanol nitrate] the “Henry solubility constant Hcp” value (reference: Hauff et al. (1998)) was 0.005.

In the case of `CCCCCCO[N+](=O)[O-]` [1-hexyl nitrate], the “Henry solubility constant Hcp” value (reference: Hauff et al. (1998)) is reported as 0.0076.

For `O=CC(=O)O` [oxoethanoic acid], the “Henry solubility constant Hcp” value (reference: Ip et al. (2009)) was 110.

For `C#CC` [propyne], the “Henry solubility constant Hcp” value (reference: Inga and McKetta (1961)) was 0.00062 and the “Henry solubility constant Hcp” value (reference: Simpson and Lovell (1962)) was 0.00077.

With `COc1ccccc1` [methoxybenzene] the “Henry solubility constant Hcp” value (reference: Brockbank et al. (2013)) was 0.029.

For `C=C(C)[C@H]1CC=C(C)CC1` [(R)-1-methyl-4-(1-methylethenyl)-cyclohexene], the “Henry solubility constant Hcp” value (reference: Copolovici and Niinemets (2005)) was 0.00035 and the “Henry solubility constant Hcp” value [1] was 0.00038.

In the case of `CSSSC` [2,3,4-trithiapentane], the “Henry solubility constant Hcp” value (reference: Roberts and Pollien (1997)) is reported as 0.021 and the “Henry solubility constant Hcp” value (reference: Souchon et al. (2004)) is reported as 0.014.

— Sander's compilation of Henry's law constants
